Measurements published in patent publication US10220024B2, “Method of inhibiting cancer cell, method for detecting cancer cell, and system for detecting cancer cell” (CANON KABUSHIKI KAISHA, priority 2012, dated 2019).
Where two headings read alike, the source gives them in different places.

Experiments:
[1] = tested on: K562 ALDH (−) fraction (general cancer cells); experiment: Cancer stem-cell selective inhibitory action against chronic myelocytic leukemia cells, ALDH (−) fraction, CellTiter-Glo; assay type: cell-based, Human; settings: for activity at 10 µg/mL: 10 μg/ml
Experimental: (§1) Human chronic myelocytic leukemia cells, K562, were pre-cultured in RPMI1640 medium containing 10% FBS at 37° C. in a 5% CO2 ambient. Then, a fraction containing 80% or more of cancer stem cells was extracted by use of ALDEFLUOR reagent (manufactured by VERITAS Corporation) and FACSAria flow cytometry (manufactured by Nippon Becton, Dickinson and Company). Subsequently, Compound (5) was added to the medium so as to obtain a final concentration of 10 μg/mL and cultured at 37° C. for 24 hours in a 5% CO2 ambient. The cultured cells were analyzed for viable cell count according to CellTiter-Glo Luminescent Cell Viability Assay (manufactured by Promega KK.). As a reference, the number of cells cultured in a medium containing a 0.1% dimethylsulfoxide solution (hereinafter, simply referred to as DMSO) in place of a medium containing Compound (1), in the aforementioned operation, was used as 0.1. Note that hereinafter, an ALDEFLUOR reagent positive fraction (deemed as cancer stem cells) is represented by ALDH (+), whereas an ALDEFLUOR reagent negative fraction (not deemed as cancer stem cells) is represented by ALDH (−), in some cases.
(§2) The same operation as in Experimental Example 12 was repeated except that Compound (5) in Experimental Example 12 was changed to the compounds shown in Table 4 and final concentrations shown in Table 4 were used and viable cell counts were separately analyzed. Note that the growth rate in Examples herein is a numerical value of the number of cells obtained after culture relative to the number of cells (regarded as 0.1) grown in a medium containing 0.1% DMSO.
(§3) The same operation as in Experimental Example 12 was repeated except that Compound (5) in Experimental Example 12 was changed to Imatinib (manufactured by NOVARTIS), which is a general anticancer drug, and comparative compounds shown in Table 4 and final concentrations shown in Table 4 were used and viable cell counts were separately analyzed.
(§4) The growth suppressive effect of cancer stem cells was evaluated based on the following criteria. Note that the growth rate in Examples herein is a numerical value relative to the number of cells (regarded as 0.1) grown in a medium containing 0.1% DMSO. • A: The value of ALDH (+) is less than 0.5 (growth suppressive effect against cancer stem cells is extremely high) • B: The value of ALDH (+) is 0.5 or more and less than 0.95 (growth suppressive effect against cancer stem cells is high) • C: The value of ALDH (+) is 0.95 or more (no growth suppressive effect against cancer stem cells)
(§5) Furthermore, superiority of cancer stem cells was evaluated by comparing cancer stem cells to cancer cells based on the following criteria. ALDH (+) represents cancer stem cells; whereas ALDH (−) represents general cancer cells. • A: The value of ALDH (+)/ALDH (−) is less than 0.8 (selective inhibitory effect against cancer stem cells is extremely high) • B: The value of ALDH (+)/ALDH (−) is 0.8 or more and less than 0.95 (selective inhibitory effect against cancer stem cells is high) • C: The value of ALDH (+)/ALDH (−) is 0.95 or more (no selective inhibitory effect against cancer stem cells)

[2] = tested on: K562 ALDH (+) fraction (cancer stem cells); experiment: Cancer stem-cell selective inhibitory action against chronic myelocytic leukemia cells, ALDH (+) fraction, CellTiter-Glo; assay type: cell-based; settings: Homo sapiens, 24 hours; for activity at 10 µg/mL: 10 μg/ml; for activity at 0.12 µg/mL: 0.12 μg/ml; for activity at 0.24 µg/mL: 0.24 μg/ml; for activity at 0.35 µg/mL: 0.35 μg/ml; for activity at 0.47 µg/mL: 0.47 μg/ml; for activity at 0.59 µg/mL: 0.59 μg/ml
Experimental: as §1, §2, §3, §4, §5

[3] = tested on: Prostatic cancer cells, PC-3; experiment: Cancer cell inhibitory (growth suppressive) action against prostatic cancer cells, CellTiter-Glo viable cell count; assay type: cell-based; settings: PC-3, 10 μg/mL, 24 hours
Experimental: (§6) Prostatic cancer cells, PC-3, were pre-cultured in RPMI1640 medium containing 10% FBS at 37° C. in a 5% CO2 ambient. Thereafter, 4,000 cells were seeded per well of a 96-well plate and further cultured for 24 hours. Subsequently, Compound (11) was added to the medium so as to obtain a final concentration of 10 μg/mL and cultured at 37° C. for 24 hours in a 5% CO2 ambient. The cultured cells were analyzed for viable cell count according to CellTiter-Glo Luminescent Cell Viability Assay (manufactured by Promega KK.). As a reference, the number of cells cultured in a medium containing a 0.1% dimethylsulfoxide solution (hereinafter, simply referred to as DMSO) in place of a medium containing Compound (11), in the aforementioned operation, was used as 100.
Viable cell count was analyzed in the same manner as in Experimental Example 8 except that the compounds shown in Table 3 were used in place of Compound (11) of Experimental Example 8.
Viable cell count was analyzed in the same manner as in Experimental Example 8 except that comparative compounds 1 to 4 were used in place of Compound (11) of Experimental Example 8.
The growth rate in Examples herein is a numerical value of the number of cells obtained after culture relative to the number of cells (regarded as 100) grown in a medium containing 0.1% DMSO.
Evaluation of cancer cell inhibition against the prostatic cancer cells (PC-3) was made as follows. • A: Cancer cell growth rate is less than 20% (cancer cell inhibitory (growth suppressive) effect is extremely high) • B: Cancer cell growth rate is 20% or more and less than 50% (cancer cell inhibitory (growth suppressive) effect is high) • C: Cancer cell growth rate is 50% or more (cancer cell inhibitory (growth suppressive) effect is low)

[4] = Measurement of fluorescent property of compound (spectrofluorometer); assay type: physicochemical; settings: 5 μM DMSO solution
Experimental: The excitation wavelength and fluorescence wavelength of the compound were measured by a FL4500 spectrofluorometric measuring machine manufactured by Hitachi High-Technologies Corporation.

[5] = tested on: Human pancreas cancer cells, KLM-1; experiment: Cancer cell inhibitory (growth suppressive) action against pancreatic cancer cells, CellTiter-Glo viable cell count; assay type: cell-based; settings: KLM1, KLM-1, 10 μg/mL, 24 hours
Experimental: as §6, with “Observation on cancer cell inhibitory (growth suppressive) action against pancreatic cancer cells Human pancreas” for “Prostatic”, “KLM-1,” for “PC-3,”, “(1)” for “(11)”, “(1),” for “(11),”, “regarded (100%).” for “used as 100.”
Viable cell count was analyzed in the same manner as in Experimental Example 1 except that Compound (1) of Experimental Example 1 was changed to compounds shown in Table 2.
Viable cell count was analyzed in the same manner as in Experimental Example 1 except that Compound (1) was changed to comparative compounds 1 to 4.
Viable cell counts of Experimental Examples 1 to 7 and Comparative Examples 1 to 4 were analyzed to obtain growth rates.
Evaluation of cancer cell inhibition against the pancreatic cancer cells (KLM-1) (growth suppression) was made based on the following criteria. Note that the growth rate in Examples herein is a numerical value of the number of cells obtained after culture relative to the number of cells (regarded as 100) grown in a medium containing 0.1% DMSO. Evaluation of cancer cell inhibition against the pancreatic cancer cells (KLM-1) was made as follows. • A: Cancer cell growth rate is less than 20% (cancer cell inhibitory (growth suppressive) effect is extremely high) • B: Cancer cell growth rate is 20% or more and less than 50% (cancer cell inhibitory (growth suppressive) effect is high) • C: Cancer cell growth rate is 50% or more (cancer cell inhibitory (growth suppressive) effect is low)

[6] = tested on: K562-BFP human chronic myelocytic leukemia cells transplanted to zebra young fish; experiment: Cancer metastasis suppressive effect in metastatic foci of cancer cells transplanted to zebra young fish; assay type: in vivo; settings: metastatic foci (region within 300 to 450 μm from a transplanted tumor); for Evaluation (inhibition rate in metastatic foci): 0.5 μm in breeding water; for Inhibition rate: final concentration of 0.5 μm in breeding water, 100×(1-F1/F0) versus DMSO
Description: From cell strain K562-BFP, which is a strain of human chronic myelocytic leukemia cells having fluorescent protein TagBFP constantly expressed, a fraction (ALDH (+)) containing 80% or more of cancer stem cells was extracted by use of a cancer stem cell marker, ALDEFLUOR reagent (manufactured by VERITAS Corporation) and FACSAria flow cytometry (manufactured by Nippon Becton, Dickinson and Company). The ALDH (+) fraction and a ALDH (−) fraction of general cancer cells were transplanted separately to zebra young fish (MieKomachi lineage, 2 days after fertilization) and the fish were raised in a 32° C. environment. Furthermore, 24 hours after transplantation, Compound (16) was added to breeding water so as to obtain a final concentration of […] and fish were raised for two days in a 32° C. environment. Cells transplanted to the zebra young fish were observed under MZ16F fluorescent stereoscopic microscope (manufactured by Leica Microsystems) and a fluorescent image of the cells after 24 hours was photographed and then fluorescent intensity was quantified.
As a reference, the fluorescent intensity of cells, which were cultured in the same operation method as above in a medium containing a 0.1% DMSO solution in place of Compound (16), was used.
Fluorescent images were photographed in the same manner as in Experimental Example 29 except that Imatinib and Dasatinib were respectively used in place of the compound (16) in Experimental Example 29.
The inhibition rate herein was obtained according to the expression: 100×(1-F1/F0), where the fluorescent intensity of cells when a test substance was added is represented by F1, and the fluorescent intensity of cells when a reference substance (DMSO) was added is represented by F0.
The growth suppressive effect in metastatic foci (region within 300 to 450 μm from a transplanted tumor) of cancer stem cells was evaluated based on the following criteria. • A: Inhibition rate is 70 or more (growth suppressive effect against metastatic foci (region within 300 to 450 μm from a transplanted tumor) of cancer stem cells is extremely high) • B: Inhibition rate is 50 or more and less than 70 (growth suppressive effect against metastatic foci (region within 300 to 450 μm from a transplanted tumor) of cancer stem cells is high) • C: Inhibition rate is less than 50 (growth suppressive effect against metastatic foci (region within 300 to 450 μm from a transplanted tumor) of cancer stem cells is low)

[7] = Homo sapiens, 24 hours, relative to 0.1% DMSO, read-out: ALDH(−) (growth rate)
[8] = read-out: Growth suppression evaluated
[9] = relative to 0.1% DMSO, read-out: ALDH(+) (growth rate)
[10] = read-out: Evaluation (cancer cell growth rate)
[11] = relative to 0.1% DMSO (100), read-out: Cancer cell growth rate (%)

SMILES | activity at 10 µg/mL [1, 7] | activity at 10 µg/mL [2, 8] | activity at 10 µg/mL [2, 9] | activity at 10 µg/mL [3, 10] | activity at 10 µg/mL [3, 11] | Excitation wavelength λex [4] | Fluorescence wavelength λem [4] | activity at 10 µg/mL [5, 10] | activity at 10 µg/mL [5, 11] | Evaluation (inhibition rate in metastatic foci) [6] | Inhibition rate [6] | further results
CCn1c2ccccc2c2cc(/C=c3/s/c(=C\C4=[N+](CC)c5ccccc5C4(C)C)n(CC(=O)O)c3=O)ccc21 [Compound 20] | 25% | < 50% | 14% | < 20% | 4.8% | 493 nm | 585 nm | 20 to 50% | 22.3% |  |  | 
Cc1ccc(NC(=O)c2ccc(CN3CCN(C)CC3)cc2)cc1Nc1nccc(-c2cccnc2)n1 [Imatinib, reference compound] |  |  |  |  |  |  |  |  |  | B (Inhibition rate is 50 or more and less than 70) | 60 | inhibitory effect against general cancer cells, in words [1]: an inhibitory effect against general cancer cells was observed; activity at 0.12 µg/mL ([1]; Homo sapiens, 0.12 μg/ml, 24 hours, relative to 0.1% DMSO, read-out: ALDH(−) (growth rate)): 51%; activity at 0.24 µg/mL ([1]; Homo sapiens, 0.24 μg/ml, 24 hours, relative to 0.1% DMSO, read-out: ALDH(−) (growth rate)): 40%; activity at 0.35 µg/mL ([1]; Homo sapiens, 0.35 μg/ml, 24 hours, relative to 0.1% DMSO, read-out: ALDH(−) (growth rate)): 32%; activity at 0.47 µg/mL ([1]; Homo sapiens, 0.47 μg/ml, 24 hours, relative to 0.1% DMSO, read-out: ALDH(−) (growth rate)): 22%; activity at 0.59 µg/mL ([1]; Homo sapiens, 0.59 μg/ml, 24 hours, relative to 0.1% DMSO, read-out: ALDH(−) (growth rate)): 11%; activity at 0.12 µg/mL [2, 8]: 50 to 95%; activity at 0.12 µg/mL [2, 9]: 74%; activity at 0.24 µg/mL [2, 8]: 50 to 95%; activity at 0.24 µg/mL [2, 9]: 59%; activity at 0.35 µg/mL [2, 8]: < 50%; activity at 0.35 µg/mL [2, 9]: 48%; activity at 0.47 µg/mL [2, 8]: < 50%; activity at 0.47 µg/mL [2, 9]: 36%; activity at 0.59 µg/mL [2, 8]: < 50%; activity at 0.59 µg/mL [2, 9]: 31%
CC[N+]1=C(/C=c2\s/c(=C/c3ccc4c(c3)C3CCCC3N4c3ccccc3)c(=O)n2CC(=O)O)C(C)(C)c2ccccc21 (centres unmarked) [Compound 15] | 26% | < 50% | 21% | < 20% | 7.1% | 568 nm | 643 nm | < 20% | 9% |  |  | 
Cc1nc(Nc2ncc(C(=O)Nc3c(C)cccc3Cl)s2)cc(N2CCN(CCO)CC2)n1 [Dasatinib] |  |  |  |  |  |  |  |  |  | C (Inhibition rate is less than 50) | 36 | 
